The subject of data set [1] is XPA human skin fibroblast cell line which expressed cytochrome P450 1A1. To be noted: by an endogenously formed metabolite of BPD; cited from earlier work.
Data set [2] concerns XPA Cells #32 (PGHS-/neo+). Description: Cytotoxicity: colony-forming ability of negative control XPA cells. Format: cell-based, human. The following applies: treated two hours, incubated 10 days. As for the experimental part:
(§1) XPA cells #12 (PGHS^+/neo^+) and #32 (PGHS^−/neo^+) were selected for cytotoxicity and mutagenicity assays. Cytotoxicity assays were carried out by assaying the loss of colony-forming ability as previously described (1).
(§2) Cells were treated as follows: (a) no treatment, (b) 100 μM arachidonic acid (AA), (c) 200 μM AA, (d) 5 μM benzo(a)pyrene-7,8-dihydrodiol (BPD), (e) 5 μM BPD+100 μM AA, (f) 5 μM BPD+200 μM AA, (g) 100 μM butylated hydroxyanisole (BHA), (h) 100 μM BHA+5 μM BPD+100 AA and (i) 100 μM BHA+5 μM BPD+200 μM AA. BPD was dissolved in tetrahydrofuran.
(§3) Cytotoxicity of environmental toxicants to PGHS-2^+/neo^+ (PGHS-2-dependent) XPA and wild type cells were assayed by measuring colony-forming ability. Mutagenicity of the chemical was assayed by measuring induction of 6-thioguanine resistance of the cells, which was a result of mutation of the cells to the HPRT-phenotype.
(§4) Cytotoxicity assays were carried out by assaying the loss of colony-forming ability. Briefly, after harvesting, cells were plated at a cloning density of 600 cells/well in six-well plates and incubated for 7-12 days. The colonies were washed with PBS, fixed with methanol, stained with 0.04% methylene blue, and counted.

Data set [3] has as its system 8.8 kb mitochondrial DNA. Put plainly: QPCR (14 cycles) followed by real-time PCR DNA damage analysis in XPA cells. Format: cell-based, human. An excerpt:
QPCR products of 2.3 kb and 8.8 kb mitochondrial DNA were quantitated by real-time PCR with primers to produce a 112 bp fragment using the ABI PRISM® 7700 (Applied Biosystems). DNA replication was monitored by addition of a double-stranded DNA binding dye, SYBR® Green I (Applied Biosystems).
Real-time PCR primers selected from the […].
Concentrations of 8.8 kb PCR products were obtained after treatment of PGHS-2-expressing DNA damage repair deficient cells with t-BOOH (PGHS-2 substrate) and BPD (a premutagen) using a standard curve. The standard curve was obtained by real-time PCR with various concentrations of the 8.8 kb DNA.
QPCR of a 16.2 kb, 8.8 kb and 2.3 kb mitochondrial DNA and 2.3 kb p53 and 0.5 kb β-globin nuclear DNA were carried out using biotinylated nucleotide primers. The reaction mixture contained 15 ng of template DNA, 1.2 mM MgSO4, 0.2 mM deoxynucleotide triphosphates, 0.2 μM biotinylated primers, and 1 unit of Platinum Pfx DNA polymerase (Life Technologies). Alternatively, the QPCR was carried out with the GeneAmp XL PCR kit (PerkinElmer/Roche) which contains rTth DNA polymerase XL and XL PCR buffer as previously described (9).
The PCR was initiated with a 90° C. hot-start addition of the polymerase. Initial denaturation was carried out for 1 min at 94° C. followed by cycles of denaturation at 94° C. for 15 sec, primer extension and annealing at 66° C. for 12 min and final extension at 72° C. for 10 minutes. The DNA product was separated by electrophoresis on 1% agarose gel and visualized by ethidium bromide staining.
Best fitting real-time PCR primers were selected using Primer Express program (Applied Biosystems). The PCR primers selected for a real-time PCR were used to replicate 112 bp of PCR for both 8.8 kb and 2.3 kb mitochondrial DNA. The primer binding sites are located in the middle 2.1 kb section (the missing part in 6.7 kb internal control) of 8.8 kb fragment. […] The real-time PCR primers for 112 bp product (Tm, 79° C.) are […] […]
Standard curve for real-time PCR analysis was obtained with the 8.8 kb standards ranging from 0.012 to 1200 pg. Concentrations of the 8.8 kb DNA preparation were spectrophotometrically measured. […] Using the standard curve to obtain relationship of log concentrations of various standards and Ct, QPCR product levels of the samples were calculated.
Real-time PCR analysis was carried out and specificity of the real-time PCR of the 8.8 kb fragment was analyzed by (a) agarose gel electrophoresis of 40 cycle replicated 112 bp real-time PCR product and (b) melting curve of the 112 bp product. […]
Single 112 bp real-time PCR product was detected in each sample and a sharp melting curve at 79° C., which agreeded with the theoretical Tm, was obtained. […]
In general terms: Quantitative PCR measures a nucleic acid by following its amplification.

In data set [4] the test system is XPA Cells #12 (PGHS+/neo+). Description: Cytotoxicity: colony-forming ability of PGHS-2 expressing XPA cells. Format: cell-based, human. The following applies: for Colony Number (% of Control): treated two hours, incubated 10 days. The method, then: as §1, §2, §3, §4
The test system of data set [5] is 16.2 kb mitochondrial fragment. To be noted: cited from earlier work.
Data set [6] relates to 17.7 kb fragment of the nuclear beta-globin gene. To be noted: cited from earlier work.
In data set [7] the test system is 16.2 kb mitochondrial DNA. Description: QPCR DNA damage analysis in XPA cells #12. To be noted: 0.5 mM t-BOOH; 3 hours; 26 cycles; FIG. 5. The format is cell-based, human. The method, then:
Panel A, ethidium bromide staining of biotinylated mitochondrial DNA fragments (16.2 kb), Panel B, visualization of the biotinylated mitochondrial DNA fragments by chemiluminescent assay (ECL) system, Panel C, a negative control, ethidium bromide staining of biotinylated β-globin (0.55 kb) DNA fragments and Panel D, visualization of the biotinylated β-globin DNA fragments by an ECL system.
Lane 1, bp standards, lanes 2 and 3, cells treated with 1 mM t-BOOH+solvent for BPD (tetrahydrofuran), lanes 4 and 5, cells treated with 1 mM t-BOOH+5 μM BPD, lanes 6 and 7, cells treated with solvent for AA (ethanol), lanes 8 and 9, cells treated with 100 μM AA and lanes 10 and 11, cells treated with 100 μM AA+5 μM BPD. Cells were treated for 3 hours at 37° C., DNA was isolated and QPCRs were carried out using biotinylated nucleotide primers. […]
DNA damage repair deficient XPA cells #12 (PGHS-2+) were grown and cells were treated for three hours at 37° C. with 0.5 mM or 1 mM t-BOOH with or without 5 μM to 15 μM BPD. […] DNA fragments were transferred to a nitrocellulose membrane and visualized by a streptavidin-horseradish peroxidase/chemiluminescent (ECL) system followed by quantitation with a densitometer. Visualization of the DNA fragments by the ECL system amplified intensity of each DNA band and made it possible to quantitate each DNA band using a densitometer. […]

Setting [8] is: 200 μM for 15 minutes, in 1.5 hours.
[9] abbreviates: 200 μM for 60 minutes, in 3.5 hours.

Values joined by “and” are separate entries in the source; they are usually repeats but may differ in a detail not shown here. Equal entries are not always repeated. Where two headings read alike, the source gives them in different places.

Regarding `O[C@H]1C=Cc2c(cc3ccc4cccc5ccc2c3c45)[C@@H]1O` (relative stereo) [BPD, benzo(a)pyrene-trans-7,8-dihydrodiol], the “mutation frequencies versus wild type cell line” value in data set [1] is on record as “approximately three-fold higher mutation frequencies”. For the same compound, the “Colony Number (% of Control)” value in data set [2] (5 μM BPD) is 88.0 ± 3.3 % of Control; in data set [4] (5 μM BPD) it was 214.3 ± 7.1 % of Control. Also, the “% mean value of control, 112.47 pg” value in data set [3] (5 mM BPD, samples 1 and 2) is 93.1 ± 2.7% and 111.9 ± 2.3%. In addition, in data set [3] (5 mM BPD, samples 1 and 2 = separate cell culture experiments), the “pg DNA after 14 cycles of first PCR” value is 104.71 ± 3.02 pg and 125.89 ± 2.59 pg. The “colony number (text summary of Table 1)” value in data set [4] (treatment for two hours) is on record as “dramatically increased colony number”.
For `CCCCC/C=C\C/C=C\C/C=C\C/C=C\CCCC(=O)O` [AA, arachidonic acid], the “Colony Number (% of Control)” value in data set [2] (100 μM AA) is recorded as 70.1 ± 0.6 % of Control; in data set [2] (200 μM AA) it was 72.0 ± 6.2 % of Control; in data set [4] (100 μM AA), 133.3 ± 12.6 % of Control; in data set [4] (200 μM AA) it was 140.5 ± 8.3 % of Control. The “colony number (text summary of Table 1)” value in data set [4] is “dramatically increased colony number”.
As to `COc1ccc(O)c(C(C)(C)C)c1` [BHA, butylated hydroxyanisole], the “Colony Number (% of Control)” value in data set [2] (100 μM BHA) is 96.0 ± 3.8 % of Control; in data set [4] (100 μM BHA), 211.9 ± 4.8 % of Control. For the same compound, the “colony number (text summary of Table 1)” value in data set [4] (treatment for two hours) is “dramatically increased colony number”.
As for `OO` [hydrogen peroxide], the “repair of DNA damage” value is recorded as “completely repaired” in data set [5] (setting [8]), “no repair” in data set [5] (setting [9]), “completely repaired” in data set [6] (setting [8]) and “complete DNA repair” in data set [6] (setting [9]). Besides, in data set [5] (200 and 400 μM for an hour), the “level of PCR products of the mitochondrial fragment relative to that of the nuclear beta-globin gene” value was 20%-30%.
Regarding `CC(C)(C)OO` [t-BOOH, tert-butyl hydroperoxide], in data set [3] (0.5 mM t-BOOH, samples 1 and 2), the “% mean value of control, 112.47 pg” value is 70.6 ± 2.0% and 46.7 ± 1.9%; the “pg DNA after 14 cycles of first PCR” value is 79.40 ± 2.24 pg and 52.48 ± 2.19 pg. Besides, the “16.2 kb PCR product level” value in data set [7] was −50 % of control.

(Values after patent publication US20060051787A1, “Quantitative PCR for analysis of DNA damage induced by PGHS-2 (COX-2) or other factors” (priority 2004, published 2006).)
